Marks after values point to notes of the source that are not given here.
Assays:
5-HT1a [1] = molecular target: T1, 5-HT1a (Homo sapiens, UniProt P08908); test: receptor binding assay, radioligand 3H-OH-DPAT, HEK-293 cells; design: expressed in transfected cells; host or cells: HEK-293; conditions: 5-HT1A
T1 sequence (P08908 1-422): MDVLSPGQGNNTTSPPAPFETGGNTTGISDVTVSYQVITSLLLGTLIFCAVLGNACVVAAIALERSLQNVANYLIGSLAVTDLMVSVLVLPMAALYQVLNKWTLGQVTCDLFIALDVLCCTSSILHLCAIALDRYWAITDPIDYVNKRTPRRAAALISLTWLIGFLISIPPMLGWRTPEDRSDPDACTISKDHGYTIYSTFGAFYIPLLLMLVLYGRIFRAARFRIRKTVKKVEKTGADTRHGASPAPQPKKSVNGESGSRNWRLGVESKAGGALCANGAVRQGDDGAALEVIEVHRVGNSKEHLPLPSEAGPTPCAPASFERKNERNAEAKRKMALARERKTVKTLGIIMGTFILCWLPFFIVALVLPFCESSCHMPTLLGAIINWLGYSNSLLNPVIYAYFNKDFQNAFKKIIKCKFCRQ
Experimental: (§1) For receptor binding assays, stably expressing 5-HT1a, 1b, 1d and 2c receptors cells (HEK-293, rat cerebral cortex, CHO and HEK-293, respectively) were incubated with 0.3 or 1 nM of their respective radioligand (^3H-OH-DPAT, ^125I CYP, ^3H serotonin and ^3H-mesulergine) alone or in the presence of 1 nM to 10 μM of piromelatine. The bound radioligand was assessed. Non-specific binding was evaluated under the reaction contained with 8-OH-PTA, serotonin and RS-10221 (8-[5-(2,4-Dimethoxy-5-(4-trifluoromethylphenylsulphonamido)phenyl-5-oxopentyl]-1,3,8-triazaspiro[4.5]decane-2,4-dione hydrochloride).

5-HT1d = test: functional assay; format: cell-based; conditions: 5-H 1d
[2] = system: 60 different ion channels and receptors of different neurotransmitters and hormones; test: full profile of binding parameters, 60 receptor assays; conditions: 10 μM; none of the 60 receptor assays significant
Experimental: A full profile of binding parameters to an additional 60 different ion channels and receptors of different neurotransmitters and hormones was performed (data not shown because none of the 60 receptor assays yielded a significant (>50%) inhibition by 10 μM of piromelatine).

[3] = system: patients with early symptomatic Alzheimer's disease; test: sleep quality index (PSQI), randomized placebo controlled study; format: in vivo, human; conditions: non-carriers (N = 23); 20 mg daily for 26 weeks
5-HT-2b receptor = 5-HT-2b receptor (Homo sapiens, UniProt P41595); test: receptor binding assay; conditions: 5-HT2B
[4] = system: patients with early symptomatic Alzheimer's disease; test: computerized Neuropsychological Test Battery (cNTB), randomized placebo controlled study; format: in vivo, human
[5] = system: patients with early symptomatic Alzheimer's disease; test: neuropsychiatric inventory (NPI), randomized placebo controlled study; format: in vivo, human; conditions: for NPI Improvement: 20 mg daily for 26 weeks
[6] = system: patients with early symptomatic Alzheimer's disease; test: computerized Neuropsychological Test Battery (cNTB), randomized placebo controlled study; format: in vivo, human; design: key to cNTB Improvement: ns = non-significant effect; deter = deterioration compared to placebo; conditions: for cNTB: 5, 20 and 50 mg daily for 26 weeks, change from baseline
Experimental: DNA extraction and SNP genotyping were performed as follows: For 107 patients, whole blood was collected at the time of enrollment, and genomic DNA was extracted from peripheral lymphocytes using a commercial kit. Variant genotyping of a combined Whole Genome and Whole Exome sequencing, was performed. The detection of variants associated with the response of the treatment was performed through a genome wide association study (GWAS) analysis (which is a known case-control paradigm). […] The general case-control allelic test was performed through a Cochran-Armitage trend test. […] The stratification was assessed by a complete-linkage hierarchical clustering using the pairwise population concordance as a constraint. The SNP calling was done on the aligned BAM files using DRAGEN: […]

[7] = system: patients with early symptomatic Alzheimer's disease; test: Alzheimer's Disease Assessment Scale cognitive subscale (ADAS-Cog14), randomized placebo controlled study; format: in vivo, human; design: key to ADAS-Cog14 Improvement: ns = non-significant effect; deter = deterioration compared to placebo
5-HT-1b receptor = molecular target: T2, 5-HT-1b receptor (Rattus norvegicus, UniProt P28564); test: receptor binding assay, radioligand 125I CYP, rat cerebral cortex; conditions: 5-HT1B
T2 construct: from tissue; host or cells: rat cerebral cortex
Experimental: as §1

5-HT1a [8] = molecular target: T1, 5-HT1a; test: functional assay, HTRF (cAMP or IP1); format: cell-based
Source text: (§2) For the functional assay, Homogeneous Time Resolved Fluorescence (HTRF) was used to measure cAMP or IP1 as products of the functional agonist or antagonist binding of 5-HT1a, 2a,2b, 2c, 4e, 6, 7 to their respective ligand (8-OG-DPAT or serotonin). Cellular dielectric spectroscopy was used to measure impedance as the product of the functional agonist or antagonist binding of 5HT1b and determine their respective ligand (serotonin).

5-HT-2c receptor = molecular target: T3, 5-HT-2c receptor (Homo sapiens, UniProt P28335); test: receptor binding assay, radioligand 3H-mesulergine, HEK-293 cells; conditions: 5-HT2C
T3 construct: expressed in transfected cells; host or cells: HEK-293
T3 sequence (P28335 33-458): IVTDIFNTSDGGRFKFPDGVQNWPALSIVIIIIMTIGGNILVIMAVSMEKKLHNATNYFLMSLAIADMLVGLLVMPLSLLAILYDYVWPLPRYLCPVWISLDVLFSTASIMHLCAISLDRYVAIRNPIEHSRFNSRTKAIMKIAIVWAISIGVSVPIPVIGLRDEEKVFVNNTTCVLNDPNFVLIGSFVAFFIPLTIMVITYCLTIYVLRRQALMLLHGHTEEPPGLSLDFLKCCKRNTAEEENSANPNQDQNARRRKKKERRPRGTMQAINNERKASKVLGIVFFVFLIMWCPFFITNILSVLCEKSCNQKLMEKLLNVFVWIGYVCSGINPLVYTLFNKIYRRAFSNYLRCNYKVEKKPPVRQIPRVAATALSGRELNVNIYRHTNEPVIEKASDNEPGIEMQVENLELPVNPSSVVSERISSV
Experimental: as §1

5-HT-2a receptor = 5-HT-2a receptor (Homo sapiens, UniProt P28223); test: receptor binding assay; conditions: 5-HT2A
5HT1b = 5HT1b (Homo sapiens, UniProt P28222); test: functional assay, cellular dielectric spectroscopy (impedance); format: cell-based
Source text: as §2

[9] = whole study, n=352, 5, 20, and 50 mg daily for 6 months
[10] = locus polymorphism carriers, 5, 20 and 50 mg, 26 weeks, N = 19, vs placebo
[11] = locus polymorphism non-carriers, 5, 20 and 50 mg, 26 weeks, N = 59, vs placebo

Sequence of 5-HT-2b receptor (P41595 whole entry): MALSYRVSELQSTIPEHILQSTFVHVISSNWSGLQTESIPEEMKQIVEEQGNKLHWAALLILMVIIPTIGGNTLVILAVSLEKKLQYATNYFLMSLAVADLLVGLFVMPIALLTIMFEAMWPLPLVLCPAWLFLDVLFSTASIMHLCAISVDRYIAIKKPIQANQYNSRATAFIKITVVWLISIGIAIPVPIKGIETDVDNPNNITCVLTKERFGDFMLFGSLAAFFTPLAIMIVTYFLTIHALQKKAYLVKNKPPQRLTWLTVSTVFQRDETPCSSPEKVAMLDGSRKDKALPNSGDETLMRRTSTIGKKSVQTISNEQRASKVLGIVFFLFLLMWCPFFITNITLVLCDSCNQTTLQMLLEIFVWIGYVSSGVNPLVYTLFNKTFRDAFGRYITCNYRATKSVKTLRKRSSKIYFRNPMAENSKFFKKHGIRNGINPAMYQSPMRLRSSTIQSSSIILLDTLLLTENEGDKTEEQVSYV
Sequence of 5HT1b (P28222 whole entry, species assumed): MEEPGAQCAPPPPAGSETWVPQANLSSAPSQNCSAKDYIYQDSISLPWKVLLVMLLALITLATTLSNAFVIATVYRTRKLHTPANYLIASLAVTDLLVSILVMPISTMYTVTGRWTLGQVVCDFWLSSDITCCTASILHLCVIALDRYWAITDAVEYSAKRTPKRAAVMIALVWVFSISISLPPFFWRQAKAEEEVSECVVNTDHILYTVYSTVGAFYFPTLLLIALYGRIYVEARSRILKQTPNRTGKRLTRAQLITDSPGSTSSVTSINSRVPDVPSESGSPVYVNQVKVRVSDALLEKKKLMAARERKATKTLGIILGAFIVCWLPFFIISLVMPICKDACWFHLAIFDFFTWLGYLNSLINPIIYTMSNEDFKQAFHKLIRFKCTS
Sequence of 5-HT-2a receptor (P28223 whole entry): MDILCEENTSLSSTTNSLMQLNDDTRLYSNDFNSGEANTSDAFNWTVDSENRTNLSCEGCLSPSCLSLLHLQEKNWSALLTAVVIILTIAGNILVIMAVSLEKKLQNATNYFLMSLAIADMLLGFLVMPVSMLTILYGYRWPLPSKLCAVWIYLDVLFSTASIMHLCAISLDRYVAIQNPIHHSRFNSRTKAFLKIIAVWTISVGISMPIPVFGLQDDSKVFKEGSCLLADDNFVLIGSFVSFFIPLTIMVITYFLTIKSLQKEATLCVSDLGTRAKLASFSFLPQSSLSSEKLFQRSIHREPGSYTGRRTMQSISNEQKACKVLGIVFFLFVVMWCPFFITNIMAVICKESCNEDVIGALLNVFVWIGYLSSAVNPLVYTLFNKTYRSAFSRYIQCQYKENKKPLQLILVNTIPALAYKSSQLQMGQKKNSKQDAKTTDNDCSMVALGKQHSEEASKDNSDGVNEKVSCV
T2 sequence (P28564 whole entry): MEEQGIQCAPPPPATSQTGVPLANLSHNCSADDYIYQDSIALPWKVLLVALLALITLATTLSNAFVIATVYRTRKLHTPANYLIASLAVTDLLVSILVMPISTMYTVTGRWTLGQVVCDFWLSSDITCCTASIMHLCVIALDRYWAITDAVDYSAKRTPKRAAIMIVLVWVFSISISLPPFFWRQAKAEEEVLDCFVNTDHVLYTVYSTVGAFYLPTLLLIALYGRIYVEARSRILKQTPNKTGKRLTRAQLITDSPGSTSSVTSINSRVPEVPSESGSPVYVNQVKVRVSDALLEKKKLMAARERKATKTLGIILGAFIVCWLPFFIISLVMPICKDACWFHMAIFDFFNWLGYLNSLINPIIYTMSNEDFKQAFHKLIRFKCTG

affinity in words (5-HT1a [1]): low affinity
inhibition [2]: ≤ 50%
affinity in words (5-HT-2b receptor): low affinity
affinity in words (5-HT-1b receptor): low affinity
agonist activity (5-HT1a [8]): moderate agonist activity
affinity in words (5-HT-2c receptor): low affinity
affinity in words (5-HT-2a receptor): low affinity
agonist activity (5HT1b): Low agonist activity
Structure (SMILES): COc1ccc2[nH]cc(CCNC(=O)c3cc(=O)cco3)c2c1 [piromelatine, N-(2-(5-methoxy-1H-indol-3-yl)ethyl)-4-oxo-4H-pyran-2-carboxamide]
agonist activity (5-HT1d): moderate agonist activity
PSQI Improvement [3]: yes
cNTB attention domain composite score ([4]; carriers, 20 mg): improved
global composite score of the cNTB, drug vs placebo [4, 9]: no statistically significant differences
NPI Improvement ([5]; carriers (N = 12)): yes
NPI aberrant movements ([5]; carriers, 20 mg): improvement
NPI Improvement ([5]; non-carriers (N = 23)): yes
cNTB Improvement ([6]; carriers (N = 12), 20 mg daily for 26 weeks): yes
cNTB attention domain composite score ([6]; carriers, 5 mg): improved
cNTB episodic memory domain composite score ([6]; carriers, 5 mg): improved
cNTB episodic memory domain composite score ([6]; carriers, 20 mg): improved
cNTB ([6]; locus polymorphism carriers, N = 19): 0.38*
cNTB Improvement [6, 10]: yes
cNTB ([6]; locus polymorphism non-carriers, N = 59): −0.04
cNTB Improvement [6, 11]: ns
ADAS Cog14, Cohen's d vs placebo > 0.2 ([7]; carriers, 5 mg daily for 26 weeks): improvement
ADAS-Cog14 ([7]; locus polymorphism carriers, 5, 20 and 50 mg daily for 26 weeks, N = 19): 0.63*
ADAS-Cog14 Improvement [7, 10]: deter
ADAS-Cog14 Improvement [7, 11]: yes
ADAS-Cog14 Improvement ([7]; non-carriers (N = 23), 20 mg daily for 26 weeks): yes
ADAS Cog14, Cohen's d vs placebo > 0.20 ([7]; non-carriers, 5 mg daily for 26 weeks): no improvement
ADAS-Cog14, drug vs placebo [7, 9]: no statistically significant differences

From US11840731B2, “Method for diagnosing and treating subjects having single nucleotide polymorphisms in chromosome 2, 2:107,510,000-107,540,000 locus” (NEURIM PHARMACEUTICALS (1991) LTD., priority 2021, dated 2023)
